Results from patent US10610517B2, “Compositions and methods for treating neoplastic diseases” (Celgene International II Sàrl, priority 2004, dated 2020).
Like-named read-outs stand apart in the source and are kept apart here.

What was measured:
[1] = test system: Chymotrypsin-like proteasome activity; assay type: cell-based, human; settings: data not shown
Excerpt: (§1) Whether the compound of formula (II) or Bortezomib alters proteasome activity in normal lymphocytes and skin fibroblasts was also examined.

[2] = test system: 20S proteasome in white blood cell (WBC) lysates; experiment: Ex vivo 20S proteasome activity in whole blood cells in mice
Description: To directly determine whether the compound of formula (II) (X=Cl) inhibits proteasome activity in vivo, the compound of formula (II) (X=Cl) was dissolved in 100% DMSO and serially diluted with 5% Solutol (Solutol® HS15; polyethylene glycol 660 12-hydroxystearate, BASF, Shreveport, La.) yielding a final concentration of 2% DMSO. The vehicle control consisted of 2% DMSO and 98% (5% Solutol® HS15). Male Swiss-Webster mice (five per group, 20-25 grams in weight) were treated at Bolder BioPATH, Inc. (Boulder, Colo.) with various concentrations of the compound either intravenously or orally at a volume of 10 mL/kg. One group of animals was untreated to establish a baseline of proteasome activity. Ninety minutes after administration of the compound, the animals were anesthetized and blood withdrawn by cardiac puncture. Packed whole blood cells were collected by centrifugation, washed with PBS, and frozen on dry ice for determination of ex vivo proteasome activity. Chymotrypsin-like activity of the 20S proteasome in white blood cell (WBC) lysates was determined using the peptide substrate suc-LLVY-AMC. Relative Fluoresence Units (RFU) were normalized using the protein concentrations of the cell lysates. The 20S proteasome activity of the individual mice is shown in FIG. 2 with the horizontal bar representing the average activity. […]

[3] = test system: Lymphocytes from five healthy donors; experiment: MTT cytotoxicity on normal lymphocytes
Excerpt: Bortezomib therapy is associated with toxicity in patients. […] Results are the mean±SD of three independent experiments.

[4] = test system: normal CCD-27sk fibroblasts; experiment: cells; assay type: cell-based, human
Excerpt: as §1

RPMI 8226 MM cells = assay type: in vivo, beige-nude-xid (BNX) mice
MM.1S cells = experiment: Mitochondrial and caspase apoptotic signaling in MM cells (flow cytometry, immunoblot); assay type: cell-based, human; settings: 7 nM
Description: Mitochondria play a critical role in apoptosis induction during stress. See Bossy-Wetzel, E. & Green, D. R. (1999) Mutat Res 434, 243-51 and Chauhan, D. & Anderson, K. C. […] Superoxide (O2^−) production was measured by staining cells with membrane permeable dye dihydroethidium (HE) for the last 15 min. Superoxide anions oxidize HE to fluorescent ethidium, permitting analysis by flow cytometry.
Reprobing the immunoblots with anti-Hsp60 (lower, left panel) and anti-tubulin (lower, right panel) Abs confirms purity of mitochondrial extracts and equal protein loading. Release of mitochondrial apoptogenic proteins cyto-c and Smac/DIABLO induce activation of caspases-9 and -3. […] As a control for equal loading of proteins and purity of mitochondrial fractions, filters were also reprobed with anti-tubulin (lower right panel) and anti-Hsp60 Abs (lower left panel), respectively. Blots are representative of three independent experiments.
Both caspase-9 (mitochondria-dependent) and caspase-8 (mitochondria-independent) are known to proteolytically cleave and activate a common downstream effector capsase-3, resulting in PARP cleavage. […] Total protein lysates were subjected to SDS-PAGE analysis. Immunoblot analysis of the lysates was performed with anti-PARP (upper panel) or anti-caspase-3 (lower panel) Abs. ‘FL’ indicates ‘full length’ and ‘CF’ denotes cleaved fragment.
Immunoblot analysis was performed using antibodies to cytochrome-c, Smac, Caspase-8, -9, or -3 (Cell Signaling, Beverly, Mass.), tubulin (Sigma, St. Louis, Mo.), PARP, Hsp60, or Bax (BD Bioscience Pharmingen, San Diego, Calif.). Blots were developed by enhanced chemiluminesence (ECL; Amersham, Arlington Heights, Ill.).

[5] = target: proteasome β-5, β-2, β-1 subunits in MM.1S MM cells (Homo sapiens, UniProt P28072+P28074+Q99436); experiment: Competition experiment with AdaY(125I)Ahx3L3VS in MM.1S cells; assay type: cell-based; settings: 7 nM
Description: Determination of whether the compound of formula II (X=Cl) affects the proteasome activity in multiple myeloma cells in vitro was made using a competition experiment with AdaY^125Iahx3L3VS. In this assay, sites that are not targeted by the compound of formula II (X=Cl) are labeled by AdaY(^125I)Ahx3L3VS and visualized by autoradiography, while sites that are targeted by the compound of formula II (X=Cl) can not be seen on the autoradiogram. […] 60 μg of protein extracts was incubated for 2 h with the iodinated proteasome inhibitor AdaY^125Iahx3L3VS at 37° C. Proteins were then denatured by boiling in reducing sample buffer and separated on a 12.5% SDS-PAGE gel, followed by autoradiography.

[6] = test system: Mouse embryonic fibroblast (MEFs); experiment: MTT viability of MEFs with wild-type or knock-out Bax; assay type: cell-based; settings: 48 h; FIG. 12F
Description: Results are mean±SD of three independent experiments (P<0.05).

[7] = 0.25 or 0.5 mg/kg orally twice a week

## CC12OC(=O)C1(C(O)C1C=CCCC1)NC(=O)C2CCCl (stereo not shown) [compound of formula (II) (X=Cl)]
[1]; 20 nM
  inhibition of Chymotrypsin-like proteasome activity: 99%
[1]; treatment at the IC50
  proteasome activity in CCD-27sk fibroblasts: inhibited proteasome activity
[2]; oral administration, mice
  oral activity: orally active
[2]; single i.v. or oral administration, 90 minutes after administration, FIG. 2
  Chymotrypsin-like activity of the 20S proteasome in WBC lysates: inhibits chymotrypsin-like activity of 20S proteasomes in white blood cells in a dose-dependent manner
[3]; 72 h, 0-20 nM (compound even at 20 nM; Bortezomib at 6-10 nM), FIG. 13
  viability of normal lymphocytes: does not significantly decrease the survival of normal lymphocytes
[3]; in words
  effect on normal lymphocytes at the IC50 of patient MM cells: no effect on normal lymphocytes
[4]
  IC50: 0.317 µM
RPMI 8226 MM cells; [7]
  MM tumor growth: significantly inhibits MM tumor growth
  survival: prolongs survival
RPMI 8226 MM cells; after 12 weeks of treatment, oral
  neurological behavioral changes: no neurological behavioral changes were observed
RPMI 8226 MM cells; day 300, oral, FIG. 10C
  treated mice with no recurrence of tumor: 57%
RPMI 8226 MM cells; i.v. twice weekly (compound 0.15 mg/kg; Bortezomib 1.0 mg/kg), p<0.01
  tumor progression: significantly reduced the tumor progression
RPMI 8226 MM cells; i.v. twice weekly (compound 0.15 mg/kg; Bortezomib 1.0 mg/kg), p=0.0137
  survival: prolonged survival
RPMI 8226 MM cells; oral 0.25 or 0.5 mg/kg, FIG. 10D
  tolerability and body weight: well tolerated by mice, without evidence of weight loss
RPMI 8226 MM cells; oral, twice a week
  treated mice with complete regression of tumors: 70%
RPMI 8226 MM cells; versus vehicle, FIG. 10E
  histologic analysis of the inoculation sites: disappearance of plasma cells
MM.1S cells; 12 h, serum starved MM.1S, FIG. 11A
  mitochondrial membrane potential (ΔΨm), CMXRos: decreases ΔΨm
MM.1S cells; 12 h, FIG. 11B
  Superoxide (O2−) production, dihydroethidium: triggers O2^− production
MM.1S cells; 24 h, MM.1S or MM.1R, FIG. 11F
  caspase-3 and PARP cleavage: triggers caspase-3 and PARP cleavage
MM.1S cells; 24 h, FIG. 11C
  mitochondrial versus cytosolic cyto-c and smac: triggers a decrease in mitochondrial cyto-c
MM.1S cells; 24 h, FIG. 11D
  caspase-9 cleavage: induces proteolytic cleavage of caspase-9
MM.1S cells; 24 h, FIG. 11E
  caspase-8 activation: activates caspase-8
[5]; 30 mins to 6 h, FIG. 3
  labeling of β-5 subunit by AdaY(125I)Ahx3L3VS: markedly less labeled
[5]; 6 h, data not shown
  labeling of β-2 and β-1 subunits by AdaY(125I)Ahx3L3VS: decreased the labeling of the β-2 subunits (tryptic-activity) and the β-1 subunits (caspase-like activity)
[6]
  cell viability in Bax (WT) and Bax (knock-out) MEFs: decreases viability in both Bax (WT) and Bax (knock-out)
